Measured values from PubChem BioAssay (NCI).
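Each compound was tested at five concentrations against cells in 96-well plates for 48 hours. GI50 is the concentration that inhibits growth by half. TGI denotes the concentration required for complete inhibition of growth.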

What was measured:
Experiment in all cases: growth of human tumour cells (NCI), 48 h
SK-MEL-28 melanoma = tested on: SK-MEL-28 melanoma
HCT-15 colon = tested on: HCT-15 colon
SNB-75 CNS = tested on: SNB-75 CNS
HS 578T breast = tested on: HS 578T breast
SK-OV-3 ovarian = tested on: SK-OV-3 ovarian
MOLT-4 leukemia = tested on: MOLT-4 leukemia
HOP-92 NSCLC = tested on: HOP-92 NSCLC
HL-60(TB) leukemia = tested on: HL-60(TB) leukemia
NCI-H23 lung = tested on: NCI-H23 lung
HCC-2998 colon = tested on: HCC-2998 colon
OVCAR-5 ovarian = tested on: OVCAR-5 ovarian
MDA-MB-435 = tested on: MDA-MB-435
LOX IMVI melanoma = tested on: LOX IMVI melanoma
SK-MEL-5 melanoma = tested on: SK-MEL-5 melanoma
786-0 renal = tested on: 786-0 renal
UO-31 renal = tested on: UO-31 renal
HOP-62 NSCLC = tested on: HOP-62 NSCLC
RPMI-8226 leukemia = tested on: RPMI-8226 leukemia
A549 NSCLC = tested on: A549 NSCLC
ACHN renal = tested on: ACHN renal
OVCAR-4 ovarian = tested on: OVCAR-4 ovarian
SF-539 CNS = tested on: SF-539 CNS
SF-295 CNS = tested on: SF-295 CNS
K-562 leukemia = tested on: K-562 leukemia
HCT-116 colon = tested on: HCT-116 colon
SR leukemia = tested on: SR leukemia
CCRF-CEM leukemia = tested on: CCRF-CEM leukemia

Cc1ccc(NC(C(=O)c2ccccc2)c2ccccc2)cc1 (stereo not drawn)
TGI (SK-MEL-28 melanoma): 37.3 µM
GI50 (HCT-15 colon): 27.7 µM
TGI (HCT-15 colon): > 100 µM
GI50 (SNB-75 CNS): 3.58 µM
TGI (SNB-75 CNS): 20.3 µM
GI50 (HS 578T breast): 2.09 µM
TGI (HS 578T breast): 7.79 µM
GI50 (SK-OV-3 ovarian): 15.8 µM
TGI (SK-OV-3 ovarian): 58.2 µM
GI50 (MOLT-4 leukemia): 4.71 µM
TGI (MOLT-4 leukemia): > 100 µM
GI50 (HOP-92 NSCLC): 3.58 µM
TGI (HOP-92 NSCLC): 8.95 µM
GI50 (HL-60(TB) leukemia): 2.59 µM
TGI (HL-60(TB) leukemia): 6.57 µM
GI50 (NCI-H23 lung): 3.5 µM
TGI (NCI-H23 lung): > 100 µM
GI50 (HCC-2998 colon): 4.52 µM
TGI (HCC-2998 colon): > 100 µM
GI50 (OVCAR-5 ovarian): 21.6 µM
TGI (OVCAR-5 ovarian): > 100 µM
GI50 (MDA-MB-435): 2.63 µM
TGI (MDA-MB-435): 12.7 µM
GI50 (LOX IMVI melanoma): 3.22 µM
TGI (LOX IMVI melanoma): 39.4 µM
GI50 (SK-MEL-5 melanoma): 2.84 µM
TGI (SK-MEL-5 melanoma): 14.5 µM
GI50 (786-0 renal): 4.02 µM
TGI (786-0 renal): 15.6 µM
GI50 (UO-31 renal): 13.8 µM
TGI (UO-31 renal): 35.8 µM
GI50 (HOP-62 NSCLC): 9.75 µM
TGI (HOP-62 NSCLC): 39.1 µM
GI50 (RPMI-8226 leukemia): 2.71 µM
TGI (RPMI-8226 leukemia): 14.6 µM
GI50 (A549 NSCLC): 4.08 µM
TGI (A549 NSCLC): > 100 µM
GI50 (ACHN renal): 7.94 µM
TGI (ACHN renal): > 100 µM
GI50 (OVCAR-4 ovarian): 3.93 µM
TGI (OVCAR-4 ovarian): > 100 µM
GI50 (SF-539 CNS): 13 µM
TGI (SF-539 CNS): > 100 µM
GI50 (SF-295 CNS): 2.38 µM
TGI (SF-295 CNS): 8.71 µM
GI50 (K-562 leukemia): 3.07 µM
TGI (K-562 leukemia): > 100 µM
GI50 (HCT-116 colon): 2.04 µM
TGI (HCT-116 colon): 12.4 µM
GI50 (SR leukemia): 4.26 µM
TGI (SR leukemia): 52.9 µM
GI50 (CCRF-CEM leukemia): 3.98 µM
TGI (CCRF-CEM leukemia): 51.1 µM
